Laboratory results taken from patent US6759064B2, “Compositions based on vanilloid-catechin synergies for prevention and treatment of cancer” (Purdue Research Foundation, priority 2001, dated 2004).
Counter-ions that a name gives are not always drawn. Like-named read-outs stand apart in the source and are kept apart here.

Legend:
[1] = test system: HeLa cells; assay: growth of HeLa cells in culture, 96-well plate assay; assay type: cell-based, human; details: for A580, % of no addition / Growth, % of control: HeLa; for Growth, % of control: no source
[2] = test system: 4T1 mouse mammary carcinoma cells; assay: tumor weight and metastases of 4T1 mouse mammary carcinoma cells in BALBc mice; assay type: in vivo
Procedure: Cells from monolayer culture were suspended in Hank's buffered salt solution and 1×10^6 cells were injected into the subscapular region in a volume of 0.1 ml.
Anti-metastatic drugs were administered in the dose/injection indicated intratumoral in 0.1 ml total volume on alternate days beginning after palpable tumor masses were discernible (approximately 7 days post implantation) for a total of 6 injections. Appropriate solvent and sham-injected controls were included. At […] post tumor implantations, mice were sacrificed and major organs (e.g., lung, liver, lymph nodes) were examined for evidence of metastases.

[3] = target: T1, NADH oxidase (tNOX) of HeLa cells (Homo sapiens, UniProt Q16206); assay: inhibition of NADH oxidase (tNOX) activity of HeLa cells; assay type: biochemical
T1 construct: endogenous in cells; host or cells: HeLa (ATCC CCL2)
T1 sequence (Q16206 1-610): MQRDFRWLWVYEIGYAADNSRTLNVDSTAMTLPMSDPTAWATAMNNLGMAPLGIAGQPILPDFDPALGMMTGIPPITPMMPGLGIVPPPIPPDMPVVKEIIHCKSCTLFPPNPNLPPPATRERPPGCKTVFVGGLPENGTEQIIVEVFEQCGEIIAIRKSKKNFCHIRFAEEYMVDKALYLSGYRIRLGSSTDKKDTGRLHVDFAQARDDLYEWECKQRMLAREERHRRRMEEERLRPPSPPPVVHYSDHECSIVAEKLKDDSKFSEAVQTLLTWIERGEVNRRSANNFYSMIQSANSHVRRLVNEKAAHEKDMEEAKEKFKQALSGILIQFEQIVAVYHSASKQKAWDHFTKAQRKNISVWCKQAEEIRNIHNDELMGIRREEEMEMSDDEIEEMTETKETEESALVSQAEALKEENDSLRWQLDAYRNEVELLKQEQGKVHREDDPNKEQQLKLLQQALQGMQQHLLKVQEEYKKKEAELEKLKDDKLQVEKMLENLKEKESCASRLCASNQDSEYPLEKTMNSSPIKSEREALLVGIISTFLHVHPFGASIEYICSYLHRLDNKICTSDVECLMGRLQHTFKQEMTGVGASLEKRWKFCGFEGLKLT
Procedure: (§1) HeLa (ATCC CCL2) cells were grown in 150 cm^2 flasks in Minimal Essential Medium (Gibco), pH 7.4, at 37° C. with 10% bovine calf serum (heat inactivated, plus 50 mg/l gentamicin sulfate (Sigma). A mouse mammary tumor subpopulation line 4T1 arising from a BALB/cfC3H mouse (Miller et al., 1981, Brit. J. Cancer 56:561 and Miller et al., 1990, Invasion Metastasis 10:101) was grown in DME 10, Dulbecco's modified Eagle's medium supplemented with 5% fetal calf serum, 5% newborn calf serum, 1 mM mixed non-essential amino acids, 2 mM L-glutamine, penicillin (100 units/ml), and streptomycin (100 μg/ml).
(§2) NADH oxidase activity may be monitored and measured by virtue of the decrease in absorbance at 340 nm wavelength. A millimolar extinction coefficient of 6.22 for NADH was used to calculate rates of NADH oxidation. Additional tests are such as those described by Morre, 1994, Bioenerg. Biomemb. 26:421, and Chueh et al., 1997, J. Biol. Chem. 272:11221, which are incorporated by reference in their entireties.

[4] = target: T2, NADH oxidase (tNOX) of 4T1 cells (Mus musculus, UniProt Q8R0Z2); assay: inhibition of NADH oxidase (tNOX) activity of 4T1 cells; assay type: biochemical
T2 construct: endogenous in cells; host or cells: 4T1 mouse mammary tumor cells
T2 sequence (Q8R0Z2 1-598): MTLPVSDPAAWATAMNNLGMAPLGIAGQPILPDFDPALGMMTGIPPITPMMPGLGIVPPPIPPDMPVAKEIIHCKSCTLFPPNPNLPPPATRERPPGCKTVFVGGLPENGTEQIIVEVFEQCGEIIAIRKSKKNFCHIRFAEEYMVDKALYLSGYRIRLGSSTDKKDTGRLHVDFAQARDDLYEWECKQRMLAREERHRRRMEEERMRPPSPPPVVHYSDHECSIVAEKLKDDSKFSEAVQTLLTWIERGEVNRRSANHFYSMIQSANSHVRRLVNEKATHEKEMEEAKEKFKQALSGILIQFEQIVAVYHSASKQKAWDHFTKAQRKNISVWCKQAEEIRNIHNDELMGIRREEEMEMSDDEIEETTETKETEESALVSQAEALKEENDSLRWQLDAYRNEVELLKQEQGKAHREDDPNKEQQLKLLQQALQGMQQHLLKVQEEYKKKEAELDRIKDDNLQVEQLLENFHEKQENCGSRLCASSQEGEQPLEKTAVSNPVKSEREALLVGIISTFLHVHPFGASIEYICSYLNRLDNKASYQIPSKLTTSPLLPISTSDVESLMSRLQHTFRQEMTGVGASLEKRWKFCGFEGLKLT
Procedure: as §1, §2

[5] = test system: 4T1 cells; assay: growth of 4T1 cells over 48 h, 96-well plate assay; assay type: cell-based, mouse; details: 4T1, 48 h
Procedure: as §1
Cells were quantitated using a standard cytotoxicity assay (Matthews & Neale, 1987, In Lymphokines and Interferons. A Practical Approach. Clemens, M. J. et al., eds. IRL Press, Oxford, p. 221).

[6] = target: T3, NADH oxidase (Homo sapiens, UniProt Q16206); assay: NADH oxidase assay, genestein interactions (data not shown); assay type: biochemical
T3 sequence (Q16206 1-610): T1 sequence (Q16206 1-610)
Excerpt: as §2

[7] = clearance of EGCg from the blood; details: in vivo
[8] = test system: cancer cells; assay: cancer cell growth and apoptosis under EGCg; assay type: cell-based

Compound: COc1cc(CN)ccc1O [Vanillylamine, 4-hydroxy-3-methoxybenzy amine hydrochloride]
- A580, % of no addition ([1]; 48 h, final concentration 1 μM): 128 % of no addition
- Growth, % of control ([1]; 48 h, vanillylamine 1:150): 130 % of control
- Growth, % of control ([1]; 72 h, vanillylamine 1:150): 120 % of control
- Tumor weight ([2]; BALBc mice, intratumoral on alternate days, 6 injections, sacrifice 15 days post implantation): 0.50 ± 0.20
- neurological discomfort and possible toxicity ([2]; mouse model): without the neurological discomfort and possible toxicity
- prevention of metastasis in a mouse model ([2]; mouse model): effective
- Tumor growth and metastatic spread ([2]; three animals): prevented
- EC50 ([3]; HeLa, 1.5 × 10^6 cells (Table 2), read-out: EC50(M), inhibition of NADH oxidase): 1e-09 M
- EC50 ([4]; 4T1, 1.5 × 10^6 cells (Table 2), read-out: EC50(M), inhibition of NADH oxidase): 5e-09 M
- A580, % of no addition ([5]; final concentration 1 μM): 144 % of no addition

Compound: O=c1c(-c2ccc(O)cc2)coc2cc(O)cc(O)c12 [genestein]
- growth of HeLa cells ([1]; data not shown): inhibited
- interactions of genestein with EC or Tegreen ([1]; data not shown): additive
- inhibition of growth of HeLa cells ([1]; genestein at 10 μM): 87%
- toxicity ([1]; genestein at 100 μM): toxic
- interactions with EGCg on growth of HeLa cells ([1]; higher genestein concentrations): no interactions were seen
- interactions with 1 μM EGCg on growth of HeLa cells ([1]; low genestein concentrations, data not shown): additive
- synergy with either vanillylamine or EGCg in the NADH oxidase assay [6]: did not exhibit

Compound: (−)-epigallocatechin gallate [EGCg]
- clearance from the blood [7]: rapidly cleared from the blood and metabolized
- inhibition of growth of HeLa cells ([1]; EGCg at 1 μM): 12%
- A580, % of no addition ([1]; 48 h, final concentration 20 μM): 90 % of no addition
- Growth, % of control ([1]; 48 h, EGCg 1:150): 112 % of control
- Growth, % of control ([1]; 72 h, EGCg 1:150): 97 % of control
- growth of cancer cells ([8]; challenged with 10^−7 M EGCg every two hours during the day): inhibited
- reversibility of the effect on cancer cell growth ([8]; if the EGCg is removed, cancer cells resume normal rates of growth): reversible
- EC50 ([3]; HeLa cells grown in culture (Table 3), read-out: EC50(M), inhibition of tNOX activity): 1e-07 M
- EC50 ([4]; 4T1 cells grown in culture (Table 3), read-out: EC50(M), inhibition of tNOX activity): 1e-08 M
- A580, % of no addition ([5]; final concentration 20 μM): 58 % of no addition
